In the NIST ThermoML archive (doi:10.1016/j.jct.2017.03.006):

Legend:
[1] = Liquid; for mass density: Vibrating tube method; for viscosity: Concentric cylinders viscometry
[2] = molar heat capacity at constant pressure; conditions: Liquid, Flow calorimetry

Cc1ccc(C)c(C)c1 [1,2,4-trimethylbenzene]
Conditions	mass density [kg/m3]	molar heat capacity at constant pressure [J/K/mol]	viscosity [mPa·s]
[1], 273.15 K, 100 kPa	891.7	–	–
[1], 273.15 K, 1000 kPa	892.3	–	–
[1], 273.15 K, 2000 kPa	892.9	–	–
[1], 273.15 K, 5000 kPa	894.6	–	–
[1], 273.15 K, 10000 kPa	897.4	–	–
[1], 273.15 K, 15000 kPa	900.2	–	–
[1], 273.15 K, 20000 kPa	902.8	–	–
[1], 273.15 K, 30000 kPa	908	–	–
[1], 273.15 K, 40000 kPa	912.9	–	–
[1], 273.15 K, 50000 kPa	917.5	–	–
[1], 273.15 K, 60000 kPa	921.9	–	–
[1], 273.15 K, 70000 kPa	926.2	–	–
[1], 273.15 K, 80000 kPa	930.3	–	–
[1], 273.15 K, 90000 kPa	934.2	–	–
[1], 273.15 K, 100000 kPa	938	–	–
[1], 273.15 K, 110000 kPa	941.7	–	–
[1], 273.15 K, 120000 kPa	945.2	–	–
[1], 273.15 K, 130000 kPa	948.6	–	–
[1], 273.15 K, 140000 kPa	952	–	–
[1], 283.15 K, 100 kPa	883.3	–	–
[1], 283.15 K, 1000 kPa	883.9	–	–
[1], 283.15 K, 2000 kPa	884.5	–	–
[1], 283.15 K, 5000 kPa	886.3	–	–
[1], 283.15 K, 10000 kPa	889.3	–	–
[1], 283.15 K, 15000 kPa	892.2	–	–
[1], 283.15 K, 20000 kPa	895	–	–
[1], 283.15 K, 30000 kPa	900.3	–	–
[1], 283.15 K, 40000 kPa	905.4	–	–
[1], 283.15 K, 50000 kPa	910.2	–	–
[1], 283.15 K, 60000 kPa	914.8	–	–
[1], 283.15 K, 70000 kPa	919.3	–	–
[1], 283.15 K, 80000 kPa	923.5	–	–
[1], 283.15 K, 90000 kPa	927.5	–	–
[1], 283.15 K, 100000 kPa	931.4	–	–
[1], 283.15 K, 110000 kPa	935.2	–	–
[1], 283.15 K, 120000 kPa	938.9	–	–
[1], 283.15 K, 130000 kPa	942.4	–	–
[1], 283.15 K, 140000 kPa	945.8	–	–
[1], 293.15 K, 100 kPa	875.1	–	0.888
[1], 293.15 K, 1000 kPa	875.7	–	–
[1], 293.15 K, 2000 kPa	876.3	–	–
[1], 293.15 K, 5000 kPa	878.2	–	–
[1], 293.15 K, 10000 kPa	881.4	–	–
[1], 293.15 K, 15000 kPa	884.4	–	–
[1], 293.15 K, 20000 kPa	887.3	–	–
[1], 293.15 K, 30000 kPa	892.9	–	–
[1], 293.15 K, 40000 kPa	898.2	–	–
[1], 293.15 K, 50000 kPa	903.2	–	–
[1], 293.15 K, 60000 kPa	908	–	–
[1], 293.15 K, 70000 kPa	912.6	–	–
[1], 293.15 K, 80000 kPa	916.9	–	–
[1], 293.15 K, 90000 kPa	921.1	–	–
[1], 293.15 K, 100000 kPa	925.1	–	–
[1], 293.15 K, 110000 kPa	929	–	–
[1], 293.15 K, 120000 kPa	932.8	–	–
[1], 293.15 K, 130000 kPa	936.4	–	–
[1], 293.15 K, 140000 kPa	939.9	–	–
[1], 303.15 K, 100 kPa	867	–	0.779
[1], 303.15 K, 1000 kPa	867.6	–	–
[1], 303.15 K, 2000 kPa	868.3	–	–
[1], 303.15 K, 5000 kPa	870.3	–	–
[1], 303.15 K, 10000 kPa	873.6	–	–
[1], 303.15 K, 15000 kPa	876.8	–	–
[1], 303.15 K, 20000 kPa	879.8	–	–
[1], 303.15 K, 30000 kPa	885.7	–	–
[1], 303.15 K, 40000 kPa	891.2	–	–
[1], 303.15 K, 50000 kPa	896.4	–	–
[1], 303.15 K, 60000 kPa	901.4	–	–
[1], 303.15 K, 70000 kPa	906.1	–	–
[1], 303.15 K, 80000 kPa	910.6	–	–
[1], 303.15 K, 90000 kPa	914.9	–	–
[1], 303.15 K, 100000 kPa	919.1	–	–
[1], 303.15 K, 110000 kPa	923.1	–	–
[1], 303.15 K, 120000 kPa	927	–	–
[1], 303.15 K, 130000 kPa	930.7	–	–
[1], 303.15 K, 140000 kPa	934.3	–	–
[1], 313.15 K, 100 kPa	859	–	0.692
[1], 313.15 K, 1000 kPa	859.7	–	–
[1], 313.15 K, 2000 kPa	860.4	–	–
[1], 313.15 K, 5000 kPa	862.6	–	–
[1], 313.15 K, 10000 kPa	866	–	–
[1], 313.15 K, 15000 kPa	869.3	–	–
[1], 313.15 K, 20000 kPa	872.6	–	–
[1], 313.15 K, 30000 kPa	878.7	–	–
[1], 313.15 K, 40000 kPa	884.5	–	–
[1], 313.15 K, 50000 kPa	889.9	–	–
[1], 313.15 K, 60000 kPa	895	–	–
[1], 313.15 K, 70000 kPa	899.9	–	–
[1], 313.15 K, 80000 kPa	904.6	–	–
[1], 313.15 K, 90000 kPa	909	–	–
[1], 313.15 K, 100000 kPa	913.3	–	–
[1], 313.15 K, 110000 kPa	917.4	–	–
[1], 313.15 K, 120000 kPa	921.4	–	–
[1], 313.15 K, 130000 kPa	925.2	–	–
[1], 313.15 K, 140000 kPa	928.9	–	–
[1], 323.15 K, 100 kPa	851.3	–	0.62
[1], 323.15 K, 1000 kPa	852	–	–
[1], 323.15 K, 2000 kPa	852.7	–	–
[1], 323.15 K, 5000 kPa	855	–	–
[1], 323.15 K, 10000 kPa	858.6	–	–
[1], 323.15 K, 15000 kPa	862.1	–	–
[1], 323.15 K, 20000 kPa	865.5	–	–
[1], 323.15 K, 30000 kPa	871.9	–	–
[1], 323.15 K, 40000 kPa	877.9	–	–
[1], 323.15 K, 50000 kPa	883.5	–	–
[1], 323.15 K, 60000 kPa	888.9	–	–
[1], 323.15 K, 70000 kPa	894	–	–
[1], 323.15 K, 80000 kPa	898.8	–	–
[1], 323.15 K, 90000 kPa	903.4	–	–
[1], 323.15 K, 100000 kPa	907.8	–	–
[1], 323.15 K, 110000 kPa	912	–	–
[1], 323.15 K, 120000 kPa	916.1	–	–
[1], 323.15 K, 130000 kPa	920	–	–
[1], 323.15 K, 140000 kPa	923.8	–	–
[1], 333.15 K, 100 kPa	843.6	–	0.562
[1], 333.15 K, 1000 kPa	844.4	–	–
[1], 333.15 K, 2000 kPa	845.2	–	–
[1], 333.15 K, 5000 kPa	847.6	–	–
[1], 333.15 K, 10000 kPa	851.4	–	–
[1], 333.15 K, 15000 kPa	855.1	–	–
[1], 333.15 K, 20000 kPa	858.6	–	–
[1], 333.15 K, 30000 kPa	865.3	–	–
[1], 333.15 K, 40000 kPa	871.6	–	–
[1], 333.15 K, 50000 kPa	877.4	–	–
[1], 333.15 K, 60000 kPa	883	–	–
[1], 333.15 K, 70000 kPa	888.2	–	–
[1], 333.15 K, 80000 kPa	893.2	–	–
[1], 333.15 K, 90000 kPa	898	–	–
[1], 333.15 K, 100000 kPa	902.5	–	–
[1], 333.15 K, 110000 kPa	906.9	–	–
[1], 333.15 K, 120000 kPa	911.1	–	–
[1], 333.15 K, 130000 kPa	915.1	–	–
[1], 333.15 K, 140000 kPa	919	–	–
[2], 293.15 K, 100 kPa	–	216.2	–
[2], 293.15 K, 5000 kPa	–	215	–
[2], 293.15 K, 10000 kPa	–	213.3	–
[2], 293.15 K, 15000 kPa	–	212.5	–
[2], 293.15 K, 20000 kPa	–	210.8	–
[2], 293.15 K, 25000 kPa	–	209.8	–
[2], 313.15 K, 100 kPa	–	222.5	–
[2], 313.15 K, 5000 kPa	–	221.2	–
[2], 313.15 K, 10000 kPa	–	219.6	–
[2], 313.15 K, 15000 kPa	–	218.5	–
[2], 313.15 K, 20000 kPa	–	217.7	–
[2], 313.15 K, 25000 kPa	–	217.1	–
[2], 333.15 K, 100 kPa	–	229.2	–
[2], 333.15 K, 5000 kPa	–	227.9	–
[2], 333.15 K, 10000 kPa	–	227.1	–
[2], 333.15 K, 15000 kPa	–	225.9	–
[2], 333.15 K, 20000 kPa	–	224.8	–
[2], 333.15 K, 25000 kPa	–	223.5	–
